Results as given in PubChem BioAssay (NCI).
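Compound exposure: 48 hours, 5 concentrations, 96-well plates. The concentration for 50% growth inhibition is given as GI50. At the TGI there is no net growth.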

Columns and labels:
Experiment in all cases: inhibition of tumour cell growth, NCI panel, 48 h
786-0 renal = test system: 786-0 renal
A498 renal = test system: A498 renal
A549 NSCLC = test system: A549 NSCLC
ACHN renal = test system: ACHN renal
BT-549 breast = test system: BT-549 breast
CAKI-1 renal = test system: CAKI-1 renal
CCRF-CEM leukemia = test system: CCRF-CEM leukemia
COLO 205 colon = test system: COLO 205 colon
DU-145 prostate = test system: DU-145 prostate
EKVX NSCLC = test system: EKVX NSCLC
HCC-2998 colon = test system: HCC-2998 colon
HCT-116 colon = test system: HCT-116 colon
HCT-15 colon = test system: HCT-15 colon
HL-60(TB) leukemia = test system: HL-60(TB) leukemia
HOP-62 NSCLC = test system: HOP-62 NSCLC
HOP-92 NSCLC = test system: HOP-92 NSCLC
HS 578T breast = test system: HS 578T breast
HT29 colon = test system: HT29 colon
IGROV1 ovarian = test system: IGROV1 ovarian
K-562 leukemia = test system: K-562 leukemia
KM12 colon = test system: KM12 colon
LOX IMVI melanoma = test system: LOX IMVI melanoma
M14 melanoma = test system: M14 melanoma
MALME-3M melanoma = test system: MALME-3M melanoma
MCF7 breast = test system: MCF7 breast
MDA-MB-231 breast = test system: MDA-MB-231 breast
MDA-MB-435 = test system: MDA-MB-435
MOLT-4 leukemia = test system: MOLT-4 leukemia
NCI-H226 lung = test system: NCI-H226 lung
NCI-H23 lung = test system: NCI-H23 lung
NCI-H460 lung = test system: NCI-H460 lung
NCI-H522 lung = test system: NCI-H522 lung
NCI/ADR-RES ovarian = test system: NCI/ADR-RES ovarian
OVCAR-3 ovarian = test system: OVCAR-3 ovarian
OVCAR-4 ovarian = test system: OVCAR-4 ovarian
OVCAR-5 ovarian = test system: OVCAR-5 ovarian
OVCAR-8 ovarian = test system: OVCAR-8 ovarian
PC-3 prostate = test system: PC-3 prostate
RPMI-8226 leukemia = test system: RPMI-8226 leukemia
RXF 393 renal = test system: RXF 393 renal
SF-268 CNS = test system: SF-268 CNS
SF-295 CNS = test system: SF-295 CNS
SF-539 CNS = test system: SF-539 CNS
SK-MEL-2 melanoma = test system: SK-MEL-2 melanoma
SK-MEL-28 melanoma = test system: SK-MEL-28 melanoma
SK-MEL-5 melanoma = test system: SK-MEL-5 melanoma
SK-OV-3 ovarian = test system: SK-OV-3 ovarian
SN12C renal = test system: SN12C renal
SNB-19 CNS = test system: SNB-19 CNS
SNB-75 CNS = test system: SNB-75 CNS
SR leukemia = test system: SR leukemia
SW-620 colon = test system: SW-620 colon
T-47D breast = test system: T-47D breast
TK-10 renal = test system: TK-10 renal
U251 CNS = test system: U251 CNS
UACC-257 melanoma = test system: UACC-257 melanoma
UACC-62 melanoma = test system: UACC-62 melanoma
UO-31 renal = test system: UO-31 renal

## COc1cccc(-n2ncc3c(N/N=C/c4ccc(C(=O)NCCN(C)C)cc4)ncnc32)c1
786-0 renal
  GI50: 3.58 µM
  TGI: 8.14 µM
A498 renal
  GI50: > 13.6 µM
  TGI: > 25 µM
A549 NSCLC
  GI50: 3.33 µM
  TGI: 6.91 µM
ACHN renal
  GI50: 1.08 µM
  TGI: 4.86 µM
BT-549 breast
  GI50: 4.33 µM
  TGI: 8.1 µM
CAKI-1 renal
  GI50: 1.27 µM
  TGI: 5.48 µM
CCRF-CEM leukemia
  GI50: 4.17 µM
  TGI: 11.2 µM
COLO 205 colon
  GI50: 0.605 µM
  TGI: 3.2 µM
DU-145 prostate
  GI50: 3.18 µM
  TGI: 6.57 µM
EKVX NSCLC
  GI50: 4.31 µM
  TGI: 8.57 µM
HCC-2998 colon
  GI50: 4.66 µM
  TGI: 8.58 µM
HCT-116 colon
  GI50: 2.76 µM
  TGI: 6.21 µM
HCT-15 colon
  GI50: 2.85 µM
  TGI: 6.83 µM
HL-60(TB) leukemia
  GI50: 5.58 µM
  TGI: 10.5 µM
HOP-62 NSCLC
  GI50: 4.14 µM
  TGI: 7.81 µM
HOP-92 NSCLC
  GI50: > 25 µM
  TGI: > 25 µM
HS 578T breast
  GI50: 0.57 µM
  TGI: 6 µM
HT29 colon
  GI50: 0.814 µM
  TGI: 4.55 µM
IGROV1 ovarian
  GI50: 1.58 µM
  TGI: 6.16 µM
K-562 leukemia
  GI50: 0.128 µM
  TGI: 6.65 µM
KM12 colon
  GI50: 1.36 µM
  TGI: 4.67 µM
LOX IMVI melanoma
  GI50: 1.28 µM
  TGI: 5.62 µM
M14 melanoma
  GI50: 1.8 µM
  TGI: 5.55 µM
MALME-3M melanoma
  GI50: 3.43 µM
  TGI: 7.81 µM
MCF7 breast
  GI50: 3.02 µM
  TGI: 6.82 µM
MDA-MB-231 breast
  GI50: 3.4 µM
  TGI: 7.23 µM
MDA-MB-435
  GI50: 1.93 µM
  TGI: 5.81 µM
MOLT-4 leukemia
  GI50: 4.48 µM
  TGI: 11 µM
NCI-H226 lung
  GI50: 9.36 µM
  TGI: > 22.2 µM
NCI-H23 lung
  GI50: 3.89 µM
  TGI: 8.29 µM
NCI-H460 lung
  GI50: 3.23 µM
  TGI: 7.24 µM
NCI-H522 lung
  GI50: 2.04 µM
  TGI: 5.96 µM
NCI/ADR-RES ovarian
  GI50: 5.25 µM
  TGI: 11.2 µM
OVCAR-3 ovarian
  GI50: 3.31 µM
  TGI: 6.71 µM
OVCAR-4 ovarian
  GI50: 3.16 µM
  TGI: 7.56 µM
OVCAR-5 ovarian
  GI50: 4.53 µM
  TGI: 8.61 µM
OVCAR-8 ovarian
  GI50: 4.19 µM
  TGI: 9.27 µM
PC-3 prostate
  GI50: 2.97 µM
  TGI: 6.47 µM
RPMI-8226 leukemia
  GI50: 6.33 µM
  TGI: 12.9 µM
RXF 393 renal
  GI50: 0.496 µM
  TGI: 3.53 µM
SF-268 CNS
  GI50: 4.11 µM
  TGI: 8.46 µM
SF-295 CNS
  GI50: 3.85 µM
  TGI: 7.93 µM
SF-539 CNS
  GI50: 3.78 µM
  TGI: 7.79 µM
SK-MEL-2 melanoma
  GI50: > 9.86 µM
  TGI: > 13.9 µM
SK-MEL-28 melanoma
  GI50: 3.5 µM
  TGI: 7.28 µM
SK-MEL-5 melanoma
  GI50: 2.95 µM
  TGI: 6.09 µM
SK-OV-3 ovarian
  GI50: 1.53 µM
  TGI: 4.68 µM
SN12C renal
  GI50: 3.01 µM
  TGI: 6.99 µM
SNB-19 CNS
  GI50: 5.07 µM
  TGI: 9.75 µM
SNB-75 CNS
  GI50: 1.05 µM
  TGI: 5.13 µM
SR leukemia
  GI50: 2.29 µM
  TGI: > 13.9 µM
SW-620 colon
  GI50: 4.73 µM
  TGI: 9.06 µM
T-47D breast
  GI50: > 22.6 µM
  TGI: > 25 µM
TK-10 renal
  GI50: 3.4 µM
  TGI: 6.8 µM
U251 CNS
  GI50: 3.25 µM
  TGI: 6.77 µM
UACC-257 melanoma
  GI50: 3.72 µM
  TGI: 7.44 µM
UACC-62 melanoma
  GI50: 3.72 µM
  TGI: 7.39 µM
UO-31 renal
  GI50: 1.64 µM
  TGI: 5.88 µM
